For data set [1], the target named is T1, HEG1-KRIT1 PPI (Homo sapiens, UniProt O00522).
T1 construct: a recombinant FERM domain (residues 417–736) of KRIT1; made in house; host or cells: E. coli
Kind of data set: HEG1-KRIT1 PPI fluorescence polarization (FP) time-resolved assay. It is filed as biochemical. As to conditions: means ± SD, n = 3; for IC50: fluorescence polarization assay after 4 h of incubation; for HEG1-KRIT1 PPI Assay kon / koff: global fit across six or more inhibitor concentrations; for Ki: global fit, unit in Figure 2E, read-out: HEG1-KRIT1 PPI Assay Ki (koff/kon). Here is the method: To evaluate the binding kinetics of HNA inhibitors, a fluorescence polarization (FP) time-resolved assay that uses a recombinant FERM domain (residues 417–736) of KRIT1 and a fluorescence-tagged HEG1 cytoplasmic tail (Cy5-HEG1 7-mer peptide) was developed (Supporting Information). Using HNA as a test compound, the FP data, expressed as millipolarization (mP) units, were obtained every 10 min over the course of 4–7 h. […] Thus, for practical purposes, a 4-h incubation time was established as the standard assay time for non-kinetic IC50 evaluations.
Fluorescence Polarization Assay and Optimization
The KRIT1 FERM domain (residues 417-736) was cloned into plasmid and recombinantly expressed in E. coli as previously described,1 while the Cy5-HEG1 7- mer peptide bearing the Cy5 dye as fluorescent probe was prepared by and purchased from GenScript (New Jersey, US). HEPES- buffered saline (HBS) buffer was supplemented (0.01%) with detergent Triton X -100 to minimize protein adsorption to the microplate. The assay was setup in a 96-well plate plated with 80 nM KRIT1, 4 nM Cy5- HEG1 probe, and either non-tagged HEG1 peptide or HNA as inhibitor (in 5% DMSO). To account for background fluorescence that could interfere with the assay, background wells with only test compound and Cy5 -HEG1 probe (no KRIT1) were also plated. The FP data, expressed as millipolarization (mP) units, were obtained […]
course of 4-7 hours (for kinetic characterization) using a Tecan Spark® Multimode Microplate Reader. The background mP (no KRIT1) was subtracted from mP to account for background fluorescence. All assays were done in triplicates.
Several FP assay conditions were optimized. First, the HEG1 probe engagement of KRIT1 was examined and its interaction was determined to be rapid equilibrium, thus any observed time dependance in response when an inhibitor displaces the probe is the result of inhibitor exchange kinetics and not that of the probe. Next, the affinity of KRIT1 for the probe (Kd) was examined by following the change in polarization signal as a function of a matrix of five probe concentrations and four KRIT1 concentrations (Figure S1B ). A global fit of equation 3 to polarization responses of the inhibitor vs KRIT1 concentration […]
even after 7 hours of incubation. For practical purposes, we have chosen 4 hours as our standard incubation time since it appeared that most of the inhibition has been reached at this time point. The kinetic characterization of HNA as a HEG1- KRIT1 inhibitor will be discussed in greater detail in the kinetic section […]
values to those obtained from the flow cytometry assay. Finally, to assess the robustness of the FP assay, […]
a robust assay) representing an excellent assay with clear differences between positive and negative controls.2 Evaluation of HEG1-KRIT1 inhibitors prior to the optimization of the FP assay were done using flow cytometry, while subsequent compounds were evaluated using the FP assay. All subsequent assay plates included HNA as comparison and control.
Figure S1. Optimization of fluorescence polarization (FP) assay.
HEG1-KRIT1 inhibition. (B) Optimization of KRIT1 protein and Cy5 -HEG1 probe concentrations. Dose-response curve of HNA obtained via fluorescence polarization (C) and flow cytometry (D) assays show […]
All assays were tested in technical duplicates or triplicates in at least 2 different
A general note: Polarisation of emitted light reports the rotation of a fluorescent probe.

Data set [2] can be described thus: HEK293 cytotoxicity, resazurin cell viability assay. It is filed as cell-based. To be noted: human, HEK293 cells, means ± SD, n = 3. Here is the method:
Maintenance of HEK293 Cells. HEK293 cell lines (American Type Culture Collection (ATCC)) were cultured in Dulbecco's Modified Eagle Medium (DMEM, Invitrogen) supplemented with 10% heat-inactivated fetal bovine serum (FBS, Gibco) and penicillin-streptomycin (1%). Cells were kept at 37 °C and 5% CO2, and were passaged every 72 hours.
Resazurin Cell Viability Assay. The cytotoxicity in HEK293 cells were determined using a resazurin cell viability assay. Test compounds in DMSO were diluted to 100x desired final assay concentration (maximum concentration of 100 µM) in eight-point dose response. 1 µL of test compounds were plated in a 96-well clear bottom tissue culture microplate. 49 µL of cell culture media was added to each well. Cells were diluted to 4 x 10^5 cells/mL, and 50 µL of this cell suspension was seeded to each well for a total of 2 x 10^4 cells/well. The assay plate was kept at 37 °C and 5% CO 2 for either 4 or 48 hours. At the end of the incubation time, 20 µL of 0.5 mM resazurin sodium salt (Alfa Aesar) solution in PBS was added to each well. The assay plates were incubated further at 37 °C for 2 hours. Fluorescence was measured at 531 nm and 595 nm excitation and emission wavelengths, respectively, using a 2104 EnVision® multilabel plate reader. CC50 values were obtained using sigmoidal curved generated with Prism GraphPad (San Diego, CA). SD values are reported as the standard deviation of the CC50 values of 3 biological replicates. All
A general note: Alamar Blue is a resazurin reagent that responds to reducing activity.

A short description of data set [3]: pKa by potentiometric titration (Sirius T3). The data set is classed as physicochemical. To be noted: potentiometric titrations, means ± SD of three titrations.

These results are taken from article PMC10644391, “Targeted Reversible Covalent Modification of a Noncatalytic Lysine of the Krev Interaction Trapped 1 Protein Enables Site-Directed Screening for Protein–Protein Interaction Inhibitors” (ACS Pharmacology & Translational Science, 2023).

“And” between values parts separate entries of the source, which are not always exact repeats. Equal entries are not always repeated.

T1 sequence (O00522 417-736): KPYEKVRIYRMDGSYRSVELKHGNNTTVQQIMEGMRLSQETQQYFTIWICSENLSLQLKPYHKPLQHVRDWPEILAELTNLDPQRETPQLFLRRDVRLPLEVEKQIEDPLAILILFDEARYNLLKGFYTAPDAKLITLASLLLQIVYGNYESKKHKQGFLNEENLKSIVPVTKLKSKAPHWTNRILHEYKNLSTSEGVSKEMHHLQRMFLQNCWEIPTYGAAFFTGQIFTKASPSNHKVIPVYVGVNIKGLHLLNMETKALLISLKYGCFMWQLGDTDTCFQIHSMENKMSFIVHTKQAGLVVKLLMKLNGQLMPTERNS

As a reminder, the IC50 is the concentration needed to halve the response being measured. High values mean a need for much substance, low ones inhibition by little substance. As a reminder, the koff is the rate constant with which the complex falls apart. A low value points to slow dissociation. The CC50 is the concentration at which the toxic effect on the cells reaches its halfway point. A lower CC50 goes with greater toxicity to the cells. As to `O=Cc1c(O)ccc2cc(-c3cccs3)ccc12` [Compound 4], in data set [1], the IC50 stood at 470 ± 110 nM, the “HEG1-KRIT1 PPI Assay kon” value worked out at 200 ± 30 M⁻¹ s⁻¹, the off-rate constant (koff) is 0.000114 s⁻¹ and the Ki was found to be 570 ± 140 nM. The compound also returned a cytotoxic concentration (CC50) at 48 h in data set [2] of 33900 ± 700 nM.

Broadly, the pKa is the pH at which an ionisable group is half protonated. Low values mean a group that gives up its proton readily, high ones a group that holds its proton tightly. Turning to `O=Cc1c(O)ccc2ccc(-c3ccco3)cc12` [Compound 6], in data set [1], the IC50 was 940 ± 120 nM, the “HEG1-KRIT1 PPI Assay kon” value was 52.8 ± 9.17 M⁻¹ s⁻¹, the dissociation rate constant (koff) is 4.97e-05 s⁻¹ and the Ki came to 940 ± 320 nM. Besides, the pKa in data set [3] is 7.5 ± 0.02. Further, in data set [2], the CC50 at 48 h is 41200 ± 6700 nM.

In the case of `C=CCc1ccc2c(C=O)c(O)ccc2c1` [Compound 7], in data set [1], half-maximal inhibition (IC50) was put at 1220 ± 430 nM, the “HEG1-KRIT1 PPI Assay kon” value worked out at 50.8 ± 5 M⁻¹ s⁻¹, the koff is 3.19e-05 s⁻¹ and the Ki was 630 ± 160 nM. Moreover, the pKa in data set [3] came to 7.17 ± 0.09. The compound further gave a half-maximal cytotoxic concentration (CC50) at 48 h in data set [2] of 33900 ± 5400 nM.

With `O=Cc1c(O)ccc2cc(Cl)ccc12` [Compound 8], in data set [1], inhibition was half-maximal at 1830 ± 820 nM (IC50), the “HEG1-KRIT1 PPI Assay kon” value amounted to 35.6 ± 5 M⁻¹ s⁻¹, the dissociation rate constant (koff) is 2.97e-05 s⁻¹ and the Ki was 840 ± 330 nM. In data set [3], this compound returned a pKa of 7.3 ± 0.06. Moreover, the CC50 at 48 h in data set [2] is ~100000 nM.

`C=CCOc1ccc2c(C=O)c(O)ccc2c1` [Compound 9]: in data set [1], the IC50 is 2750 ± 190 nM, the “HEG1-KRIT1 PPI Assay kon” value was 24.6 ± 1.81 M⁻¹ s⁻¹, the koff was 2.29e-05 s⁻¹ and the Ki turned out to be 930 ± 240 nM. In addition, the pKa in data set [3] came to 7.34 ± 0.12. Moreover, in data set [2], the CC50 at 48 h was 59200 ± 12900 nM.

For `O=Cc1c(O)ccc2cc(OC(F)F)ccc12` [Compound 10], in data set [1], the midpoint of inhibition, the IC50, lay at 2210 ± 680 nM; the “HEG1-KRIT1 PPI Assay kon” value turned out to be 29.7 ± 2.5 M⁻¹ s⁻¹; the koff was 3.08e-05 s⁻¹; the Ki was determined as 1030 ± 250 nM. The same compound came in with a pKa in data set [3] of 6.95 ± 0.12. Also, the CC50 at 48 h in data set [2] was > 100000 nM.

With `CN(C)c1ccc2c(C=O)c(O)ccc2c1` [Compound 11], in data set [1], the IC50 was determined as 12100 ± 4610 nM; the “HEG1-KRIT1 PPI Assay kon” value is 9.64 M⁻¹ s⁻¹ and 9.64 ± 2.08 M⁻¹ s⁻¹; the koff was 0.00011 s⁻¹; the Ki was 11400 ± 4080 nM. The half-maximal cytotoxic concentration (CC50) at 48 h in data set [2] is > 100000 nM.

For the compound `CC#Cc1ccc2c(C=O)c(O)ccc2c1` [Compound 12], in data set [1], the IC50 came out at 1420 ± 320 nM, the “HEG1-KRIT1 PPI Assay kon” value came out at 43.1 ± 5.83 M⁻¹ s⁻¹, the dissociation rate constant (koff) was 4.36e-05 s⁻¹ and the Ki came out at 1010 ± 290 nM. For the same compound, the pKa in data set [3] was 7.02 ± 0.08. The half-maximal cytotoxic concentration (CC50) at 48 h in data set [2] is ~100000 nM.

As for `O=Cc1c(O)ccc2cc(-c3ccccc3)ccc12` [Compound 13], in data set [1], 790 ± 240 nM corresponded to half-maximal inhibition (IC50), the “HEG1-KRIT1 PPI Assay kon” value was 112 ± 23.9 M⁻¹ s⁻¹, the koff was 7.28e-05 s⁻¹ and the Ki worked out at 650 ± 240 nM. The pKa in data set [3] was determined as 6.76 ± 0.1. In data set [2], this compound registered a CC50 at 48 h of 43500 ± 9400 nM.

As to `O=Cc1c(O)ccc2cc(-c3c[nH]nn3)ccc12` [Compound 14], in data set [1], the IC50 stood at 12000 ± 1090 nM; the “HEG1-KRIT1 PPI Assay kon” value is 4.58 M⁻¹ s⁻¹ and 4.58 ± 0.444 M⁻¹ s⁻¹; the dissociation rate constant (koff) was 1.99e-05 s⁻¹; the Ki came out at 4350 ± 1770 nM. In data set [3], this compound registered a pKa of 7.38 ± 0.12. Besides, in data set [2], the CC50 at 48 h was > 100000 nM.

For `O=Cc1c(O)ccc2cc(-c3ccsc3)ccc12` [Compound 15], in data set [1], the concentration for half-maximal inhibition (IC50) turned out to be 1180 ± 390 nM, the “HEG1-KRIT1 PPI Assay kon” value is 60.3 ± 7.5 M⁻¹ s⁻¹, the koff is 5e-05 s⁻¹ and the Ki turned out to be 830 ± 200 nM. The pKa in data set [3] was 7.75 ± 0.08. Further, the half-maximal cytotoxic concentration (CC50) at 48 h in data set [2] is 38400 ± 6100 nM.

As to `O=Cc1c(O)ccc2ccc(-c3cccs3)cc12` [Compound 16], in data set [1], half-maximal inhibition (IC50) was put at 240 ± 90 nM, the “HEG1-KRIT1 PPI Assay kon” value came out at 232 ± 40.8 M⁻¹ s⁻¹, the koff is 7.28e-05 s⁻¹ and the Ki turned out to be 310 ± 90 nM. In addition, the half-maximal cytotoxic concentration (CC50) at 48 h in data set [2] amounted to 31400 ± 4200 nM.
